Experiments:
[1] = tested on: BRCA2^−/− DLD-1 cells; assay: Shorter versus longer term treatment, viability of BRCA2-/- DLD-1 cells; assay type: cell-based, human
Description: To determine whether the EC50 values would change based on the duration of the treatment with 3E10-SN38 conjugates, WT or BRCA2^−/− DLD-1 cells were treated with different concentrations of SN38, cD31N antibody, or cD31N-SN38 conjugate and cell viability, and the EC50 values were tracked over time. Shorter term treatment was defined as a 24 hour treatment followed by a change to fresh treatment-free medium. Longer term treatment was defined as treatment without a change of medium for 7 days (e.g., the treatment is not removed).

[2] = tested on: WT HCT116 cells; assay: Clonogenic assay in WT HCT116 cells; assay type: cell-based
Description: (§1) Clonogenic or colony formation assays are in vitro assays that can measure the survival or growth of cells on a single-cell level based on the ability of a single cell to grow into a colony. WT or BRCA2^−/− DLD-1 cells were plated with different concentrations of SN38, 3E10 antibody, or 3E10-SN38 conjugate added into the clonogenic assay media. After 7 days for WT cells or 10 days for BRCA2^−/− cells, colony numbers were counted to quantify DLD-1 cell survival. […] Consistent with earlier results, DLD-1 cell survival was concentration-dependent.
The effects of treatment with SN38 or 3E10-SN38 conjugates on HCT116 cells were tested in clonogenic assays as previously described. WT and IDH1^mut HCT116 cells were treated with SN38, cD31N antibody, or cD31N-SN38 conjugate. Cell survival of WT (FIG. 25A) and IDH1^mut HCT116 cells (FIG. 25B) was quantified after 7 days for WT cells or 10 days for […].

[3] = tested on: BRCA2^−/− DLD-1 cells; assay: Clonogenic assay in BRCA2-/- DLD-1 cells; assay type: cell-based, human; conditions: BRCA2-/- DLD-1, after 10 days
Description: as §1

[4] = tested on: WT DLD-1 cells; assay: Clonogenic assay in WT DLD-1 cells; assay type: cell-based, human; conditions: WT DLD-1, after 7 days
Description: as §1

[5] = tested on: HCT116- IDH1^mut cells; assay: Cell viability of HCT116-IDH1mut cells; assay type: cell-based
Description: WT and mutant IDH1 (IDH1^mut) HCT116 cells were treated with different concentrations of SN38, cD31N antibody, or cD31N-SN38 conjugate. The effects of 3E10-cD31N-SN38 conjugate treatment on HCT116 WT and HCT116IDH1^mut were investigated.

Which results are given for CCc1c2c(nc3ccc(O)cc13)-c1cc3c(c(=O)n1C2)COC(=O)[C@]3(O)CC [SN38, SN-38]?
cell viability ([1]; BRCA2-/- DLD-1, day 7 of longer term treatment): cell viability was reduced; cell viability and EC50, longer term versus shorter term treatment ([1]; BRCA2-/- DLD-1, 7 days without change of medium vs 24 hour treatment): lower cell viability and lower EC50 values than with shorter term treatment; survival fraction ([2]; 1 nM): 0%; cell survival (clonogenic) ([2]; after 7 days): low levels of cell survival in a concentration-dependent manner; cell survival (colony numbers) [3]: reduced cell survival; cell survival (colony numbers) [4]: reduced cell survival; cell viability ([5]; 5 days of treatment): substantial loss in cell viability; cell viability ([5]; 7 days of treatment): substantial loss in cell viability

Source: patent US20260207769A1, “ANTIBODY DRUG CONJUGATES” (YALE UNIVERSITY, priority 2022, published 2026)
